From patent US8129434B2, “Benzylphenyl cyclohexane derivatives and methods of use” (Theracos, Inc., priority 2007, dated 2012)

How the values were obtained:
human SGLT2 = target: T1, human SGLT2 (Homo sapiens, UniProt P31639); experiment: Methyl-α-D-[U-14C]glucopyranoside uptake assay, cells stably expressing human SGLT2; assay type: cell-based; settings: HEK293.ETN cells stably expressing human SGLT2; 25% human serum; 1.5 h at 37° C.; sodium-dependent uptake
T1 construct: A full-length cDNA clone expressing human SGLT2 (GenScript Corporation) was subcloned into Hind III and Not I sites of pEAK15 expression vector
T1 sequence (P31639 1-672): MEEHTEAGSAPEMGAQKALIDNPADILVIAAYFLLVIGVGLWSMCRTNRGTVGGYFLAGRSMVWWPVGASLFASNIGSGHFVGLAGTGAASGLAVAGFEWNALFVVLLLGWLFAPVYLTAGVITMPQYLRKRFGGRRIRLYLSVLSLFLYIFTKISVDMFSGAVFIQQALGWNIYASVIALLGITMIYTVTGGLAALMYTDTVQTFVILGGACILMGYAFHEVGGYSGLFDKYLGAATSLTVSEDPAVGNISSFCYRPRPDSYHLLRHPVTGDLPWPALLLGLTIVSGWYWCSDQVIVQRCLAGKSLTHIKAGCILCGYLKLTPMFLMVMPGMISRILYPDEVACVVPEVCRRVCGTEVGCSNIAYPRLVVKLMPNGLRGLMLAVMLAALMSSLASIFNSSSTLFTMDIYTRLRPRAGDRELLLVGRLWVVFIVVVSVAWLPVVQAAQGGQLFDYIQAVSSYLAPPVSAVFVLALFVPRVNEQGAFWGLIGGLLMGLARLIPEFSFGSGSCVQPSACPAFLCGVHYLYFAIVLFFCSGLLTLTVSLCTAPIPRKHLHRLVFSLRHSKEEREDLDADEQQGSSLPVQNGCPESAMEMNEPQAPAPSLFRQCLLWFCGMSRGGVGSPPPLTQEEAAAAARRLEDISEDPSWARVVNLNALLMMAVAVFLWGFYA
Source text: A full-length cDNA clone expressing human SGLT2 (GenScript Corporation) was subcloned into Hind III and Not I sites of pEAK15 expression vector. Clones harboring the cDNA inserts were identified by restriction analysis.
Plasmid containing human SGLT2 was linearized with Nsi I and purified by agarose gel electrophoresis. Using Lipofectamine 2000 Transfection Reagent (Invitrogen Corporation), DNA was transfected into HEK293.ETN cells and cultured in Dulbecco's Modified Eagle Medium (DMEM) containing 10% fetal bovine serum (FBS) at 37° C. under 5% CO2 for 24 h. Transfectants were selected in the same growth medium supplemented with puromycin (Invitrogen Corporation) for two weeks. Puromycin-resistant cells were recovered and seeded on a fresh 96-well plate (single cell per well) and cultured in the presence of puromycin until cells became confluent. Puromycin-resistant clones were evaluated for SGLT2 activity in the methyl-α-D-[U-^14C]glucopyranoside uptake assay described below.
(§1) Cells expressing SGLT1 or SGLT2 were seeded on 96-well ScintiPlate scintillating plates (PerkinElmer, Inc.) in DMEM containing 10% FBS (1×10^5 cells per well in 100 μl medium) incubated at 37° C. under 5% CO2 for 48 h prior to the assay. Cells were washed twice with 150 μl of either sodium buffer (137 mM NaCl, 5.4 mM KCl, 2.8 mM CaCl2, 1.2 mM MgCl2, 10 mM tris(hydroxymethyl)aminomethane/N-2-hydroxyethylpiperazine-N′-ethanesulfonic acid [Tris/Hepes], pH 7.2) or sodium-free buffer (137 mM N-methyl-glucamine, 5.4 mM KCl, 2.8 mM CaCl2, 1.2 mM MgCl2, 10 mM Tris/Hepes, pH 7.2). Test compound in 50 μl each of sodium or sodium-free buffer containing 40 μCi/ml methyl-α-D-[U-^14C]glucopyranoside (Amersham Biosciences/GE Healthcare) and 25% human serum was added per well of a 96-well plate and incubated at 37° C. with shaking for either 2 h (SGLT1 assay) or 1.5 h (SGLT2 assay). Cells were washed twice with 150 μl of wash buffer (137 mM N-methylglucamine, 10 mM Tris/Hepes, pH 7.2) and methyl-α-D-[U-^14C]glucopyranoside uptake was quantitated using a TopCount scintillation counter (PerkinElmer, Inc.). Sodium-dependent glucopyranoside uptake was measured by subtracting the values obtained with sodium-free buffer from those obtained using sodium buffer (average of triplicate determinations).

human SGLT1 = target: T2, human SGLT1 (Homo sapiens, UniProt P13866); experiment: Methyl-α-D-[U-14C]glucopyranoside uptake assay, human SGLT1 expressing cells; assay type: cell-based; settings: COS-7 cells transfected with human SGLT1; 25% human serum; 2 h at 37° C.; sodium-dependent uptake
T2 construct: Full-length human SGLT1 cDNA on pDream2.1 expression vector was obtained from GenScript Corporation; host or cells: COS-7 (American Type Culture Collection)
T2 sequence (P13866 1-664): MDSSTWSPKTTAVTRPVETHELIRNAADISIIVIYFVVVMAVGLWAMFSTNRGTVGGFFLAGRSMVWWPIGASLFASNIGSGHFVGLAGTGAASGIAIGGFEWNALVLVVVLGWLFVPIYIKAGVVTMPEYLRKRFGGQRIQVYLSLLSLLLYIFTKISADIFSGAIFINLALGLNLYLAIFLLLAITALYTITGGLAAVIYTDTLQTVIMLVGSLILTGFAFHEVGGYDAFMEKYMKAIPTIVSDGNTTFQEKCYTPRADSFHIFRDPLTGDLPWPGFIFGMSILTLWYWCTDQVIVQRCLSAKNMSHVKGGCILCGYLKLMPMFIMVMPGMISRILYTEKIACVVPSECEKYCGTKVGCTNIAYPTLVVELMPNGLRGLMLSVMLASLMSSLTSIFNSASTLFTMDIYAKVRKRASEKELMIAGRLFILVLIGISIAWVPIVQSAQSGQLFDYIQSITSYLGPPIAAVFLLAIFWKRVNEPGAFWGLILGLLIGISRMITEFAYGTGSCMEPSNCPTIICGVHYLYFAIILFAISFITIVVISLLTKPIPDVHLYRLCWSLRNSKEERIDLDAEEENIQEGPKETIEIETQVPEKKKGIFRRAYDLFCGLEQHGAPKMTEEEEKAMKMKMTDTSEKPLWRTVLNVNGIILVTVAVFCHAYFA
Description: Full-length human SGLT1 cDNA on pDream2.1 expression vector was obtained from GenScript Corporation and propagated in Escherichia coli strain DH5α using Luria-Bertani (LB) medium containing ampicillin. Plasmid DNA was isolated using the QIAGEN Plasmid Midi Kit (QIAGEN Inc.). […] Transfected cells were stored in DMEM containing 10% dimethyl sulfoxide (DMSO) at −80 ° C.
as §1

Row | SMILES | IC50 (human SGLT2) [nM] | IC50 (human SGLT1) [nM]
1 | CCc1ccc(Cc2cc([C@H]3[C@H](O)[C@@H](O)[C@H](O)[C@@H](CO)[C@@H]3O)ccc2Cl)cc1 [5 (R = Et), (1R,2R,3S,4R,5R,6S)-4-(4-chloro-3-(4-ethylbenzyl)phenyl)-6-(hydroxymethyl)cyclohexane-1,2,3,5-tetraol] | < 1000 | < 1000
2 | CCOc1ccc(Cc2cc([C@H]3[C@H](O)[C@@H](O)[C@H](O)[C@@H](CO)[C@@H]3O)ccc2Cl)cc1 [Compound 9, (1R,2R,3S,4R,5R,6S)-4-(4-chloro-3-(4-ethoxybenzyl)phenyl)-6-(hydroxymethyl)cyclohexane-1,2,3,5-tetraol] | < 1000 | 1000 to 10000
3 | OC[C@@H]1[C@@H](O)[C@H](O)[C@@H](O)[C@H](c2ccc(Cl)c(Cc3ccc(C4CC4)cc3)c2)[C@H]1O [Compound 10, (1R,2R,3S,4R,5R,6S)-4-(4-chloro-3-(4-cyclopropylbenzyl)phenyl)-6-(hydroxymethyl)cyclohexane-1,2,3,5-tetraol] | < 1000 | < 1000
4 | OC[C@@H]1[C@@H](O)[C@H](O)[C@@H](O)[C@H](c2ccc(Cl)c(Cc3ccc(C4CCCCC4)cc3)c2)[C@H]1O [Compound 12, (1R,2R,3S,4R,5R,6S)-4-(4-chloro-3-(4-cyclohexylbenzyl)phenyl)-6-(hydroxymethyl)cyclohexane-1,2,3,5-tetraol] | < 1000 | > 10000
5 | CCc1ccc(Cc2ccccc2O[C@H]2[C@H](O)[C@@H](O)[C@H](O)[C@@H](CO)[C@@H]2O)cc1 [Compound 30, (1R,2S,3R,4R,5S,6R)-4-(2-(4-ethylbenzyl)phenoxy)-6-(hydroxymethyl)cyclohexane-1,2,3,5-tetraol] | < 1000 | > 10000
6 | CC(=O)c1ccc(Cc2cc([C@H]3[C@H](O)[C@@H](O)[C@H](O)[C@@H](CO)[C@@H]3O)ccc2Cl)cc1 [Compound 39, 1-(4-(2-chloro-5-((1R,2S,3R,4R,5S,6R)-2,3,4,6-tetrahydroxy-5-(hydroxymethyl)cyclohexyl)benzyl)phenyl)ethanone] | < 1000 | 1000 to 10000
7 | CC(O)c1ccc(Cc2cc([C@H]3[C@H](O)[C@@H](O)[C@H](O)[C@@H](CO)[C@@H]3O)ccc2Cl)cc1 (stereo partly drawn) [Compound 40, (1R,2R,3S,4R,5R,6S)-4-(4-chloro-3-(4-(1-hydroxyethyl)benzyl)phenyl)-6-(hydroxymethyl)cyclohexane-1,2,3,5-tetraol] | < 1000 | 1000 to 10000

Other lines, results leading:

Row | IC50 (human SGLT2) [nM] | IC50 (human SGLT1) [nM] | SMILES
8 | < 1000 | 1000 to 10000 | CCCc1ccc(Cc2cc([C@H]3[C@H](O)[C@@H](O)[C@H](O)[C@@H](CO)[C@@H]3O)ccc2Cl)cc1 [Compound 11, (1R,2R,3S,4R,5R,6S)-4-(4-chloro-3-(4-propylbenzyl)phenyl)-6-(hydroxymethyl)cyclohexane-1,2,3,5-tetraol]
9 | < 1000 | > 10000 | OC[C@H]1C=C(c2ccc(Cl)c(Cc3ccc(OCC#CC4CC4)cc3)c2)[C@H](O)[C@@H](O)[C@@H]1O [Compound 13, (1R,2S,3S,6R)-4-(4-chloro-3-(4-(3-cyclopropylprop-2-ynyloxy)benzyl)phenyl)-6-(hydroxymethyl)cyclohex-4-ene-1,2,3-triol]
10 | < 1000 | 1000 to 10000 | CCc1ccc(Cc2cc([C@H]3[C@H](O)[C@@H](O)[C@H](O)[C@@H](COC(C)=O)[C@@H]3O)ccc2Cl)cc1 [Compound 17, ((1S,2R,3R,4S,5R,6R)-3-(4-chloro-3-(4-ethylbenzyl)phenyl)-2,4,5,6-tetrahydroxycyclohexyl)methyl acetate]
11 | < 1000 | 1000 to 10000 | C=C1[C@H](CO)[C@@H](O)[C@H](O)[C@@H](O)[C@@H]1c1ccc(Cl)c(Cc2ccc(CC)cc2)c1 [Compound 35, (1R,2R,3S,4S,6R)-4-(4-chloro-3-(4-ethylbenzyl)phenyl)-6-(hydroxymethyl)-5-methylenecyclohexane-1,2,3-triol]
12 | < 1000 | 1000 to 10000 | CCc1ccc(Cc2cc([C@H]3[C@H](O)[C@@H](O)[C@H](O)[C@@H](CO)C34CC4)ccc2Cl)cc1 [Compound 37, (4S,5S,6R,7R,8R)-4-(4-chloro-3-(4-ethylbenzyl)phenyl)-8-(hydroxymethyl)spiro[2.5]octane-5,6,7-triol]
